Read-outs that look alike come from different tables or passages of the source.
Assays:
[1] = tested on: six bacteria (S. aureus, E. coli, P. aeruginosa; ATCC and clinical isolate); format: cell-based; details: synthesized mature peptide
Experimental: (§1) Antimicrobial testing of 78 cathelicidin MPs was performed in two phases as outlined in Figure 1 . In phase I, 40 peptides (27 extant and 13 ancestral) were selected for testing based on rank (outlined above) and similarity to published marsupial cathelicidins with known antimicrobial activity ([33], [41]–[43]). These peptides were tested against nine bacteria (Staphylococcus aureus ATCC 29213 and clinical isolate, Escherichia coli ATCC 25922 and clinical isolate, Pseudomonas aeruginosa ATCC 27853 and clinical isolate, Streptococcus agalactiae ATCC 12386 and clinical isolate, Streptococcus pneumoniae ATCC 49619) and three fungi (Candida krusei ATCC 6258, Candida parapsilosis ATCC 22019, and Candida albicans clinical isolate). Details regarding these strains are available in Supplementary Table 4 . The antimicrobial activity of cathelicidins was determined as the minimum inhibitory concentration (MIC), which was the lowest concentration of cathelicidin that prevented visible bacterial or fungal growth, relative to the negative control. […] Minimum bactericidal concentration (MBC) and/or minimum fungicidal concentration (MFC) was conducted to determine microbicidal versus static action. Activity against S. aureus ATCC, E. coli ATCC, and Pseudomonas aeruginosa ATCC 27853 was examined in the presence of divalent cations to determine the impact of inhibitors.
(§2) In phase II, the remaining 38 peptides (37 extant and one ancestral) were tested against six bacteria (S. aureus ATCC and clinical isolate, E. coli ATCC and clinical isolate, and P. aeruginosa ATCC and clinical isolate). […] No further testing on phase II peptides was performed. Detailed methods for all assays are provided in subsequent sections.
(§3) Antimicrobial activity was determined using a broth microdilution susceptibility assay in 96 well polypropylene plates according to Clinical Laboratory Standards Institute guidelines M07-A and M26A as described previously ([33], [42], [43]). The bacterial and fungal isolates from humans and animals used in this study are outlined in Supplementary Table 4 . Only yeasts were included in the panel of fungi as they have been used in the susceptibility testing of eutherian ([3], [81]–[83]) and other marsupial cathelicidins previously ([33], [42], [43]). Cathelicidin mature peptides were solubilized in DMSO and serially diluted in duplicate from 128-0.25μg/mL in a final volume of 100µL. For bacteria, cathelicidins were diluted in Mueller Hinton Broth (MHB) with or without 10% lysed horse blood, and with (MH II B) or without (MHB) calcium and magnesium cations. For fungi, cathelicidins were diluted in Roswell Park Memorial Institute medium (RPMI)-1640 MOPS. Ampicillin or tetracycline were included as a positive control for Gram-positive and -negative bacteria respectively, while amphotericin B was used for fungi. A media-only negative control and growth control (no cathelicidin) were also included on each plate. Bacteria were sub-cultured on Muller Hinton agar (MHA) or sheep blood agar (BA), and fungi on Sabouraud dextrose agar (SAB), 20–24 hours prior to the test. Colonies were suspended in saline, the concentration adjusted to a 0.5 McFarland standard, and then diluted in media to a concentration of 1.0 x 10^6 cells/mL. Then, 100μL was added to each well of the cathelicidin dilution plate, giving a final inoculum density of 5 x 10^5 CFU/mL and cathelicidin concentration of 64-0.125μg/mL. Colony counts were performed on MHA/BA/SAB to confirm inoculum density. All plates were incubated at 35°C for 20–24 hours, depending on the strain.
(§4) Colonies were counted and compared to the colony count of the starting inoculum.

[2] = tested on: Escherichia coli ATCC 25922; assay: microbe, parasite or virus in culture; format: cell-based; details: µM equivalent of Table 3; for MBC E. coli ATCC: value in brackets
Experimental: as §1, §2, §3, §4

[3] = tested on: Staphylococcus aureus clinical isolate - animal; assay: microbe, parasite or virus in culture; format: cell-based; details: clinical isolate, µM equivalent of Table 3
Experimental: as §1, §2, §3, §4

[4] = tested on: Staphylococcus aureus ATCC 29213; assay: microbe, parasite or virus in culture; format: cell-based; details: µM equivalent of Table 3
Experimental: as §1, §2, §3, §4

[5] = tested on: Escherichia coli clinical isolate - animal; assay: microbe, parasite or virus in culture; format: cell-based; details: clinical isolate, µM equivalent of Table 3
Experimental: as §1, §2, §3, §4

[6] = tested on: Pseudomonas aeruginosa clinical isolate - animal; assay: microbe, parasite or virus in culture; format: cell-based; details: clinical isolate; µM equivalent of Table 3; read-out: MIC P. aeruginosa
Experimental: as §1, §2, §3, §4

[7] = tested on: Pseudomonas aeruginosa ATCC 27853; assay: microbe, parasite or virus in culture; format: cell-based; details: µM equivalent of Table 3; read-out: MIC P. aeruginosa ATCC
Experimental: as §1, §2, §3, §4

[8] = tested on: six bacteria (S. aureus, E. coli, P. aeruginosa; ATCC and clinical isolate); parameters: method as in 4 sources, ref Peel et al 2016 ||| ref Peel et al 2021 ||| ref Wang et al 2011 ||| ref Peel et al 2017; details: mature peptide (MP), Y/N summary; ref Peel et al 2017; cited from earlier work
[9] = tested on: three fungi (Candida krusei, Candida parapsilosis, Candida albicans); parameters: method as in 4 sources, ref Peel et al 2016 ||| ref Peel et al 2021 ||| ref Wang et al 2011 ||| ref Peel et al 2017; details: mature peptide (MP), Y/N summary; ref Peel et al 2017; cited from earlier work
[10] = broth microdilution screening, phase I or II, Y/N summary over the bacteria tested

KKTRTKPKNSIRRRIKGFGIGTIILVPL [MagiCath6, predicted eastern grey kangaroo cathelicidin mature peptide]
Antibacterial (MIC <64ug/mL) [1, 10]: Y (Antibacterial (MIC <64ug/mL))
MBC E. coli ATCC [2]: 8.8 µM
MIC E. coli ATCC [2]: 8.8 µM
MBC S. aureus ([3]; value in brackets): 17.6 µM
MIC S. aureus [3]: 17.6 µM
MBC S. aureus ATCC ([4]; value in brackets): 17.6 µM
MIC S. aureus ATCC [4]: 17.6 µM
MBC E. coli ([5]; value in brackets): 17.6 µM
MIC E. coli [5]: 17.6 µM
MIC [6]: >17.6 µM
MIC [7]: >17.6 µM

KEKATKFRNSIRRRVNGLKIGAADRVPGHYLA [MagiCath5]
Antibacterial (MIC <64ug/mL) [1, 10]: N (Antibacterial (MIC <64ug/mL))

KRGFGDSVKKTGTKLKNSIRRRVTGLTVGAAVLRPG [MaruCath1p]
Antibacterial (MIC <64ug/mL) [1, 10]: N (Antibacterial (MIC <64ug/mL))

KKFLKSVIKEAISKGIPKGIQAVNKLIKEKKEGQKHKP [MAP2, marsupial ancestral peptide, predicted by ANCESCON and GASP, synthesized]
Antibacterial (MIC <64ug/mL) ([1]; antimicrobial screening Phase II, Y/N summary over bacteria tested, broth microdilution): N (Antibacterial (MIC <64ug/mL))

GSTSSPTVRF [LahiCath2]
Antibacterial (MIC <64ug/mL) [1, 10]: N (Antibacterial (MIC <64ug/mL))

PGRKKGSKRHKPGSYSVIALGKPGVKKAPYMEAL [MagiCath2]
Antibacterial (MIC <64ug/mL) [1, 10]: N (Antibacterial (MIC <64ug/mL))

GEKVKTRFIAAIKKLIDTFLP [MaruCath8]
Antibacterial (MIC <64ug/mL) [1, 10]: N (Antibacterial (MIC <64ug/mL))

KVKRGLWDTVKRKVTNLRNSIRNRATNFKLGG [MagiCath1]
Antibacterial (MIC <64ug/mL) [1, 10]: N (Antibacterial (MIC <64ug/mL))

RTLLRRVGEKVKTRFIAALEKLIDTFLP [MagiCath3, predicted eastern grey kangaroo cathelicidin mature peptide]
Antibacterial (MIC <64ug/mL) [1, 10]: Y (Antibacterial (MIC <64ug/mL))
MBC E. coli ATCC [2]: > 14.3 µM
MIC E. coli ATCC [2]: 14.3 µM
MIC ([3]; read-out: MIC S. aureus): >14.3 µM
MIC ([4]; read-out: MIC S. aureus ATCC): >14.3 µM
MIC [5]: >14.3 µM
MIC [6]: >14.3 µM
MIC [7]: >14.3 µM

PIRTKRRWKLIKKGGKIVKDLLTKNNIIILPGGNE [TaacCath1]
Antibacterial (MIC <64ug/mL) [8]: Y (Peel et al 2017) (Antibacterial (MIC <64ug/mL))
Antifungal (MIC <64ug/mL) [9]: N (Peel et al 2017) (Antifungal (MIC <64ug/mL))

LYRRRKYPTSYYLLLGGKGNNRGYKPHIIYV [ModoCath11]
Antibacterial (MIC <64ug/mL) [8]: N (Peel et al 2017) (Antibacterial (MIC <64ug/mL))
Antifungal (MIC <64ug/mL) [9]: N (Peel et al 2017) (Antifungal (MIC <64ug/mL))

APVTPAPPGFTTSSKKKGKKKLPYTVIFGRTDFP [ModoCath3]
Antibacterial (MIC <64ug/mL) [8]: N (Peel et al 2017) (Antibacterial (MIC <64ug/mL))
Antifungal (MIC <64ug/mL) [9]: N (Peel et al 2017) (Antifungal (MIC <64ug/mL))

PRRKKGPKKDNYKPGGYSLIALGKPDIQKAPYMEAL [MaruCath7]
Antibacterial (MIC <64ug/mL) [1, 10]: N (Antibacterial (MIC <64ug/mL))
